Data published in ChEMBL document CHEMBL4680376, “Discovery of Orally Active and Nonsteroidal Farnesoid X Receptor (FXR) Antagonist with Propensity for Accumulation and Responsiveness in Ileum” (ACS Med Chem Lett, 2021).
pIC50: −log10 of the molar value.

Columns and labels:
Huh-7 = experiment: Cytotoxicity against human HuH-7 cells by MTT assay
in vivo [1] = details: Sprague-Dawley, rat, po, 30 mg/kg
[2] = Metabolic stability in rat liver microsomes assessed as compound remaining at 1 ug/ml incubated for 30 mins by LC-MS/MS analysis; details: at 1 µg/mL
[3] = Plasma concentration in Sprague-Dawley rat at 30 mg/kg, po measured after 6 hrs by LC-MS/MS analysis
in vivo [4] = details: Sprague-Dawley, rat, po, 30 mg/kg; remark: listed apart in the source
[5] = rat, in vivo, iv, 1 mg/kg, 6 h
in vivo [6] = details: Sprague-Dawley, rat, po, 30 mg/kg; remark: listed apart in the source
[7] = Metabolic stability in mouse liver microsomes assessed as compound remaining at 1 ug/ml incubated for 30 mins by LC-MS/MS analysis; details: at 1 µg/mL
in vivo [8] = details: Sprague-Dawley, rat, po, 30 mg/kg; remark: listed apart in the source
Bile acid receptor [9] = target: T1, Bile acid receptor (Homo sapiens, UniProt Q96RI1); experiment: Antagonist activity at recombinant GST-tagged FXR LBD (unknown origin) assessed as inhibition of GW4064-induced Fluorecein-SRC2-2 coactivator peptide recruitment by LanthaScreen TR-FRET co-regulator assay
T1 sequence (Q96RI1 whole entry): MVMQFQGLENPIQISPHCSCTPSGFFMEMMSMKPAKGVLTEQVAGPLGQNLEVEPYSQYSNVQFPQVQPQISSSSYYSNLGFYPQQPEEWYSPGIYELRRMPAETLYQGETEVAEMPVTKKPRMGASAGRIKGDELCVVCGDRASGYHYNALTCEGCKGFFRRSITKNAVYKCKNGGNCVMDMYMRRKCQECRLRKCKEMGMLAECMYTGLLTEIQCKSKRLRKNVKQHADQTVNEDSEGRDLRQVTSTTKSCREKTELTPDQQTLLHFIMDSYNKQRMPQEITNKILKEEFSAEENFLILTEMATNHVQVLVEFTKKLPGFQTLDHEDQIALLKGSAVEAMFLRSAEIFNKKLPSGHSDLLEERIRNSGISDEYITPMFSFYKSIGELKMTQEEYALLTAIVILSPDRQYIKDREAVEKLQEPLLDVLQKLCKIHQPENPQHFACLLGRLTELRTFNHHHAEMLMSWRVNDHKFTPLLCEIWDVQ

Bile acid receptor [10] = target: T1, Bile acid receptor; experiment: Antagonist activity against recombinant human FXR transfected in human HuH-7 cells co-transfected with FRE-luciferase assessed as reduction in CDCA-induced luciferase expression incubated for 24 hrs by luciferase reporter gene assay

Row | AUC(0-t) at 6 h (in vivo [1]) | remaining at 0.5 h, 1 ug/ml [2] | concentration at 6 h [3] | Cmax at 6 h (in vivo [4]) | AUC [5] | bioavailability at 6 h (in vivo [6]) | remaining at 0.5 h, 1 ug/ml [7] | Tmax at 6 h (in vivo [8]) | pIC50 (Bile acid receptor [9]) | pIC50 (Bile acid receptor [10]) | SMILES | pIC50 (Huh-7)
1 | 15600 ng·h/mL | 84.4% | 2480 ng/mL | 2850 ng/mL | 56.2 µg·min/mL | 55.4% | 54% | 3 h |  |  | CC(C)C(=O)N1CCC(C[C@@H](c2nc3ccc(F)cc3n2C2CC2)N2C(=O)CN(c3ccc(Oc4ccc(F)cc4)cc3)C2=O)CC1 | < 4.00
2 |  |  |  |  |  |  | 10.6% |  |  |  | Cc1ccc2nc([C@H](CC3CCN(C(=O)C(C)C)CC3)N3C(=O)CN(c4ccc(Oc5ccc(F)cc5)cc4)C3=O)n(C)c2c1 | < 4.00
3 |  |  |  |  |  |  | 29.4% |  | 6.85 | 8.74 | CC(C)C(=O)N1CCC(C[C@@H](c2nc3ccccc3n2C2CC2)N2C(=O)CN(c3ccc(Oc4ccc(F)cc4)cc3)C2=O)CC1 | < 4.00
4 |  | 12.1% |  | 483 ng/mL |  | 18% | 2.4% | 2 h |  | > 12.00 | COc1ccc(Oc2ccc(N3CC(=O)N([C@@H](CC4CCN(C(=O)C(C)C)CC4)c4nc5ccc(C)cc5n4C)C3=O)cc2)cc1 | < 4.00
